This experiment addresses T1, Full-length glucokinase (beta cell isoform) (Homo sapiens, UniProt P35557).
T1 construct: Full-length glucokinase (beta cell isoform) was His-tagged at N-terminus; His tag (N); made in house; host or cells: E. coli BL21(DE3), pBCGK vector
T1 sequence (P35557 1-465): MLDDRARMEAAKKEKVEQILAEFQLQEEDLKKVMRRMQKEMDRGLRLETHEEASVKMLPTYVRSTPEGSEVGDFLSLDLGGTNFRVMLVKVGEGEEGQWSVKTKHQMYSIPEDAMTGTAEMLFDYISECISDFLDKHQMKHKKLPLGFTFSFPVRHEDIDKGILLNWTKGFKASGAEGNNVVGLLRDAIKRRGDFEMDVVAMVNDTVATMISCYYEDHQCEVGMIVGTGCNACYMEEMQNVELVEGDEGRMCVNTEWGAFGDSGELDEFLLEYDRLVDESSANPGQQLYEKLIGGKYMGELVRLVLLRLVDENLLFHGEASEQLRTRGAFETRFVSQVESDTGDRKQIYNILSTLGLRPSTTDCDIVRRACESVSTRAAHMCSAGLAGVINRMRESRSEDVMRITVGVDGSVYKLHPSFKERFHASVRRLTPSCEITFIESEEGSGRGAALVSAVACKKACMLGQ
Briefly: Glucokinase activation assay (PK/LDH-coupled, NADH depletion at 340 nm). Format: biochemical. Particulars: 5 mM glucose, single value or range where N>1; for EC50: 2.5 mM ATP, pH 7.1, room temperature, read-out: EC50; for Emax: % max activation = (Va/Vo−1)×100 from fit, pH 7.1, read-out: Maximum Activation (%). As to the method: Full-length glucokinase (beta cell isoform) was His-tagged at N-terminus and purified by a Ni column followed by size exclusion chromatography. A 320 mL column was packed in house using Superdex75 (Amersham Pharmacia, Carlsbad, Calif.) preparation grade resin. Glucose was obtained from Calbiochem (San Diego, Calif.) and other reagents were purchased from Sigma-Aldrich (St. Louis, Mo.).
All assays were performed in a Corning 384-well plate using Spectramax PLUS spectrophotometer (Molecular Devices, Sunnyvale, Calif.) at room temperature. The final assay volume was 40 ∥L. The buffer conditions used in this assay were as follows: 50 mM HEPES, 5 mM glucose, 2.5 mM ATP, 3.5 mM MgCl2, 0.7 mM NADH, 2 mM dithiothreitol, 1 unit/mL pyruvate kinase/lactate dehydrogenase (PK/LDH), 0.2 mM phosphoenolpyruvate, and 25 mM KCl. The buffer pH was 7.1. The test compound in dimethylsulfoxide solution was added to the buffer and mixed by a plate shaker for 7.5 minutes. The final concentration of dimethylsulfoxide introduced into the assay was 0.25%.
Glucokinase was added to the buffer mixture to initiate the reaction in the presence and absence of compound. The reaction was monitored by absorbance at 340 nm due to the depletion of NADH. The initial reaction velocity was measured by the slope of a linear time course of 0-300 seconds. The percentage of maximum activation was calculated by the following equation: % Maximum Activation=(Va/Vo−1)×100; wherein each of Va and Vo is defined as the initial reaction velocity in the presence and absence of the tested compound, respectively.
The glucokinase activities were measured as a function of compound concentrations.

The structures appear in SMILES notation.

What is called EC50 is the concentration that produces a half-maximal response. With `Cc1ccc(NC(=O)[C@H](CC2CCCC2)n2ccc(C(F)(F)F)n2)nc1` [Example 69, (S)-3-cyclopentyl-N-(5-methylpyridin-2-yl)-2-(3-(trifluoromethyl)-1H-pyrazol-1-yl)propanamide], the EC50 is 5.5 µM and the Emax stood at 90%.

As for `Cc1ccc(NC(=O)[C@H](CC2CCOCC2)n2cnc(C(F)(F)F)c2)nc1` [Example 75, (S)—N-(5-methylpyridin-2-yl)-3-(tetrahydro-2H-pyran-4-yl)-2-(4-(trifluoromethyl)-1H-imidazol-1-yl)propanamide], the EC50 fell in the range of 0.8 to 2 µM and the Emax fell in the range of 51 to 78%. Regarding `Cc1ccc(NC(=O)[C@H](Cn2cccn2)n2cnc(C(F)(F)F)c2)nc1` [Example 83, (S)—N-(5-methylpyridin-2-yl)-3-(1H-pyrazol-1-yl)-2-(4-(trifluoromethyl)-1H-imidazol-1-yl)propenamide], the EC50 was greater than 100 µM. With `CCn1ccc(NC(=O)[C@H](CC2CCCC2)n2cc(S(C)(=O)=O)cn2)n1` [Example 11, (S)-3-cyclopentyl-N-(1-ethyl-1H-pyrazol-3-yl)-2-(4-(methylsulfonyl)-1H-pyrazol-1-yl)propanamide], the EC50 stood at 32 µM and the Emax is 110%. For `Cn1ccc(NC(=O)[C@H](CC2CCOCC2)n2cnc(C(F)(F)F)c2)n1` [Example 76, (S)—N-(1-methyl-1H-pyrazol-3-yl)-3-(tetrahydro-2H-pyran-4-yl)-2-(4-(trifluoromethyl)-1H-imidazol-1-yl)propanamide], in that order: 18 µM and 138%. On to `CCS(=O)(=O)c1cnn([C@@H](CC2CCCC2)C(=O)Nc2ccc(C)cn2)c1` [Example 21, (S)-3-cyclopentyl-2-(4-(ethylsulfonyl)-1H-pyrazol-1-yl)-N-(5-methylpyridin-2-yl)propanamide], for which the EC50 turned out to be 2.9 µM and the Emax is 65%.

`CC(C)S(=O)(=O)c1cnn([C@@H](CC2CCCC2)C(=O)Nc2ccon2)c1` [Example 15, (S)-3-cyclopentyl-2-(4-(isopropylsulfonyl)-1H-pyrazol-1-yl)-N-(isoxazol-3-yl)propanamide]: the EC50 turned out to be 60 µM and the Emax is 89%. For `Cn1ccc(NC(=O)[C@H](CC2CCCC2)n2cnc(S(C)(=O)=O)n2)n1` [Example 26, (S)-3-cyclopentyl-N-(1-methyl-1H-pyrazol-3-yl)-2-(3-(methylsulfonyl)-1H-1,2,4-triazol-1-yl)propanamide], in that order: 33 µM and 89%.

For the molecule `CC(C)S(=O)(=O)c1cnn([C@@H](CC2CCCC2)C(=O)Nc2ccc(C(F)(F)F)cn2)c1` [Example 3, (S)-3-cyclopentyl-2-(4-(isopropylsulfonyl)-1H-pyrazol-1-yl)-N-(5-(trifluoromethyl)pyridin-2-yl)propanamide], the EC50 fell in the range of 0.7 to 1.9 µM and the Emax lay within 15 to 23%. For `CCS(=O)(=O)c1cn([C@@H](CC2CCCC2)C(=O)Nc2ccn(C)n2)cn1` [Example 31, (S)-3-cyclopentyl-2-(4-(ethylsulfonyl)-1H-imidazol-1-yl)-N-(1-methyl-1H-pyrazol-3-yl)propanamide], in that order: 11 µM and 125%. On the same counts, the results for `CC(C)S(=O)(=O)c1cnn([C@@H](CC2CCCC2)C(=O)Nc2ccn(C)n2)c1` [Example 7, (S)-3-cyclopentyl-2-(4-(isopropylsulfonyl)-1H-pyrazol-1-yl)-N-(1-methyl-1H-pyrazol-3-yl)propanamide] are 3.5 to 6 µM and 39 to 40%. For `CC(C)S(=O)(=O)c1cnn([C@@H](CC2CCCC2)C(=O)Nc2ccn(Cc3ccccc3)n2)c1` [Example 19, (S)—N-(1-benzyl-1H-pyrazol-3-yl)-3-cyclopentyl-2-(4-(isopropylsulfonyl)-1H-pyrazol-1-yl)propanamide], in that order: 1.3 to 1.7 µM and 33 to 39%.

(Values after patent US8389552B2, “(S)-6-(2-(4-(cyclobutylsulfonyl)-1H-imidazol-1-yl)-3-cyclopentylpropanamido)nicotinic acid useful as a glucokinase activator” (Pfizer Inc., priority 2009, dated 2013).)
